A short description of this series: gradient 5% acetonitrile 3 min, to 50% in 2 min, to 85% in 15 min, held 3 min, 100 µL/min. Conditions: column: Zorbax Extend-C18 2.1 x 50 mm; eluents: water / acetonitrile, 0.1% formic acid. In short, it runs like this:
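Standards, all pure, were combined into mixtures of ~100 molecules and run at 100 μL/min on a Zorbax Extend-C18 column (2.1 × 50 mm, 1.8 μm) with water and acetonitrile, each containing 0.1% formic acid. A coupled quadrupole time-of-flight mass spectrometer operated in positive and negative ionization mode. Retention time values come from computationally picked adduct peaks, each inspected manually.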
Molecule `Cc1ccccc1CNC(=O)CN1C(=O)CCCc2cc(S(=O)(=O)N3CCCCC3)ccc21` yielded an RP-LC retention time of 911 s.

`Cc1ccc2nc(NC(=O)C3CC(=O)N(c4n[nH]c5ccccc45)C3)sc2c1` (configuration not stated) showed an RP-LC retention time of 787 s.

For `COc1ccc(S(=O)(=O)N2CCCC(C)(C(=O)NCc3ccccc3)C2)cc1` (configuration not stated), the RP-LC retention time amounted to 917 s.

For `O=C(Nc1ccc(C(F)(F)F)cc1)N1CC(n2cnnc2-c2ccccc2)C1`, the RP-LC retention time is 784 s.

`Cc1ccc2c(=O)c(C(=O)N3CCC(C)CC3)cn(CC(=O)Nc3ccccc3)c2n1` gave an RP-LC retention time of 783 s.

Molecule `O=C(Nc1ccc2c(c1)OCCO2)N1CCC(OCCOCc2ccccc2)CC1` registered an RP-LC retention time of 853 s.

`COCC(=O)Nc1nc(-c2ccc3c(c2)NC(=O)C(C)O3)cs1` (configuration not stated) gave an RP-LC retention time of 691 s.

Turning to `CCOc1ccc(NC(=O)N2CCC(c3nc(C(=O)N4CCCC4)c(C)o3)CC2)cc1`, the RP-LC retention time turned out to be 764 s.

In turn, `CC(=O)NC(C)C(=O)N1CCC(CCOc2cccnc2)CC1` (configuration not stated) returned an RP-LC retention time of 567 s.

`COc1ccc(S(=O)(=O)N2CCCC(C(=O)NCCC3=CCCCC3)C2)cc1C` (configuration not stated): the RP-LC retention time worked out at 1070 s.

As for `O=C(CSc1nnc2c3sc(N4CCCC4)nc3ncn12)Nc1ccc(F)c(Cl)c1`, the RP-LC retention time was found to be 890 s.

In the case of `Cc1cc(SCC(=O)N2CCCc3ccccc32)nc(C)n1`, the RP-LC retention time was 722 s.

`O=C(NC1CCCCC1)C1CC(=O)N(c2ccc3c(c2)CCN3C(=O)C2CC2)C1` (configuration not stated) had an RP-LC retention time of 733 s.

The molecule `O=C(Nc1ccccc1-c1nc2ccccc2s1)c1ccno1` came in with an RP-LC retention time of 728 s.

In turn, `O=C(CN1C(=O)C(C(=O)N2CCCC2)Sc2ccccc21)N1CCN(c2cccc(Cl)c2)CC1` (configuration not stated) showed an RP-LC retention time of 923 s.

`Cc1ccc(-c2noc(-c3cccc(S(=O)(=O)NCc4ccc(C)o4)c3)n2)cc1`: the RP-LC retention time was found to be 1170 s.

`CC1(C(=O)NC2CCCC2)CC(c2ccccc2)=NO1` (configuration not stated) gave an RP-LC retention time of 700 s.

Molecule `COc1ccc(Nc2cc(C(=O)N3CCCC3)nc3ccc(C)cc23)cc1` came in with an RP-LC retention time of 659 s.

The molecule `COc1cccc(-c2ccc(=O)n(Cc3nc(-c4ccc(Cl)cc4)no3)n2)c1` came in with an RP-LC retention time of 1110 s.

`Cc1ccc(CC(=O)NCc2c(C)noc2C)cc1` showed an RP-LC retention time of 742 s.

`Cc1c(C(=O)NC2CCCCC2)cnn1-c1cc(-c2nc(C3CC3)no2)ccn1` came in with an RP-LC retention time of 1060 s.

Regarding `CCOc1ccc(C(=O)NC2CCN(c3cc(-c4ccccc4)[nH]n3)C2)cc1OCC` (configuration not stated), the RP-LC retention time was 748 s.

`CCOc1ccc(NC(=O)Cn2c(=O)cc(-c3nc(C)no3)c3ccccc32)cc1` yielded an RP-LC retention time of 862 s.

As to `Cn1cc(C(=O)NC2CCN(Cc3ccccc3)CC2)c2cccnc21`, the RP-LC retention time was found to be 594 s.

On to `O=C1CC2OCC=C3CN4CC[C@]56c7ccccc7N1C5[C@H]2[C@H]3C[C@H]46` (some centres not stated), for which the RP-LC retention time is 583 s.

Regarding `COc1ccc(C(=O)N2CCC3(C2)C(=O)N(C)c2ccccc23)cc1OC` (configuration not stated), the RP-LC retention time was 714 s.

Molecule `Cc1ccc(CNC(=O)c2c(C)sc3ccn(CC(C)C)c(=O)c23)o1` showed an RP-LC retention time of 683 s.

On to `O=C(Cn1cc(-c2nnco2)c2ccccc21)NCc1cccc(Cl)c1`, for which the RP-LC retention time was found to be 817 s.

`CCC(=O)Nc1ccc(CCc2nc3ccc(C(=O)NCc4ccc(C)o4)cc3[nH]2)cc1` returned an RP-LC retention time of 638 s.

Consider `O=C(CCc1c(-c2ccccc2)nc2ccccn12)Nc1ccc(F)cc1F`, for which the RP-LC retention time stood at 666 s.

The molecule `Cn1cc(CCNC(=O)Nc2ccccc2Br)c2cccnc21` showed an RP-LC retention time of 722 s.

In turn, `CC(C)NC(=O)c1ccc(OCC2CCCN2C(=O)c2ccc(N(C)C)cc2)cc1` (configuration not stated) returned an RP-LC retention time of 799 s.

These data come from the METLIN SMRT retention time set (Domingo-Almenara et al. 2019).
